Data taken from BindingDB's records for patent US20250313563 (The Broad Institute, 2025).
pIC50: −log10 of the molar value. Values joined by “and” are separate entries in the source; they are usually repeats but may differ in a detail not shown here. Equal values may be shown once.

Legend:
[1] = biological target: Glycogen synthase kinase-3 alpha (Homo sapiens, UniProt P49840); assay: TR-FRET Assay
Method in brief: (§1)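 TR-FRET readout: streptavidin-d2 (40 nM in added detection mix) plus Tb-anti-pSer641 Ab (2 nM in mix). Steps were 30 min compound preincubation, kinase reaction, then EDTA stop.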

[2] = biological target: Glycogen synthase kinase-3 beta (Homo sapiens, UniProt P49841); assay: TR-FRET Assay
Method in brief: as §1

Glycogen synthase kinase-3 alpha, sequence (P49840 whole entry): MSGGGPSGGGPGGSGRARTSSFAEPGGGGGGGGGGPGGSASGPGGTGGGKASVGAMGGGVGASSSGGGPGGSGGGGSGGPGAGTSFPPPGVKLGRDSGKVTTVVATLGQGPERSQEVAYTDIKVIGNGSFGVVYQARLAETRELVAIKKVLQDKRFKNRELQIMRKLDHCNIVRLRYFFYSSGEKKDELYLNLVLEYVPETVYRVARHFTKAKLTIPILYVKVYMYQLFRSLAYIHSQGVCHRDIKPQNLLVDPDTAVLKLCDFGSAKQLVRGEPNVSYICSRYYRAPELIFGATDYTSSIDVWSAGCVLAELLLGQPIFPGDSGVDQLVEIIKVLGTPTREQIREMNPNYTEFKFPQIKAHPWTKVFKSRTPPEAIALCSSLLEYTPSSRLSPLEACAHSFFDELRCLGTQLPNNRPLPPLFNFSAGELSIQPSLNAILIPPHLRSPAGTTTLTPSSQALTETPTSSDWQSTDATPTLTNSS
Glycogen synthase kinase-3 beta, sequence (P49841 whole entry): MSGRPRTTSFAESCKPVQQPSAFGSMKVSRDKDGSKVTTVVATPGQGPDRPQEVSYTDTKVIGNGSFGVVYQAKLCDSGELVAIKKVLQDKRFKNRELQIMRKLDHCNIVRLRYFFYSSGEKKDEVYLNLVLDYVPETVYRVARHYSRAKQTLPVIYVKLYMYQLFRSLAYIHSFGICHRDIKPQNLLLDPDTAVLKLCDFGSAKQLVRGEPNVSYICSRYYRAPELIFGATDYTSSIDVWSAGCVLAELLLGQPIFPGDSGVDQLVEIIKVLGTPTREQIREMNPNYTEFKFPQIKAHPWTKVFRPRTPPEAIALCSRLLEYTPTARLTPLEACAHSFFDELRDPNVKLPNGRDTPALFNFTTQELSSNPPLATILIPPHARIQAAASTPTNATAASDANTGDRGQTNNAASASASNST

Structure (SMILES)	pIC50 [1]	pIC50 [2]
CCC1(c2cccc(N3CCOc4ccccc43)c2)C2=CN=NC2NC2=C1C(=O)CC(C)(C)C2 (stereo unspecified) [US20250313563, Compound 918280]	> 7.00	> 7.00
CCC1(c2cccc(-c3ccnc(C)c3F)c2)C2=CN=NC2NC2=C1C(=O)CC(C)(C)C2 (stereo unspecified) [US20250313563, Compound 918281]	> 7.00	6.00 to 7.00
CC1(C)CC2=C(C(=O)[C@H]1F)[C@]1(CC[C@H](C(F)(F)F)CC1)C1=C(N=NC1)N2 [US20250313563, Compound 918282]	> 7.00	> 7.00
CC1(C)CC2=C(C(=O)[C@@H]1F)[C@]1(CC[C@H](C(F)(F)F)CC1)C1=CN=NC1N2 (stereo partly specified) [US20250313563, Compound 918283]	> 7.00	> 7.00
CC1(C)CC(=O)C2=C(NC3=C(CN=N3)[C@]23CC[C@@H](C(F)(F)F)CC3)[C@@H]1F [US20250313563, Compound 918284]	> 7.00	> 7.00
CC1(C)CC(=O)C2=C(NC3=C(CN=N3)[C@]23CC[C@@H](C(F)(F)F)CC3)[C@H]1F [US20250313563, Compound 918285]	> 7.00 and 5.30 to 6.00	6.00 to 7.00 and < 5.30
CCC1(c2cccc(C(F)(F)F)c2)C2=CN=NC2NC2=C1C(=O)N(c1ccccc1)C2 (stereo unspecified) [US20250313563, Compound 918313]	6.00 to 7.00	5.30 to 6.00
C[C@@H]1C[C@@]2(CCN1S(C)(=O)=O)C1=C(N=NC1)NC1=C2C(=O)CC(C)(C)C1 [US20250313563, Compound 918315]	6.00 to 7.00	6.00 to 7.00
C[C@@H]1C[C@]2(CCN1S(C)(=O)=O)C1=CN=NC1NC1=C2C(=O)CC(C)(C)C1 (stereo partly specified) [US20250313563, Compound 918316]	> 7.00	6.00 to 7.00
CC[C@@]1(c2cccc(N3CCC[C@H]3C)c2)C2=CN=NC2NC2=C1C(=O)CC(C)(C)C2 (stereo partly specified) [US20250313563, Compound 918322]	< 5.30	< 5.30
CC[C@]1(c2cccc(N3C[C@@H](C)[C@@H](C)C3)c2)C2=CN=NC2NC2=C1C(=O)CC(C)(C)C2 (stereo partly specified) [US20250313563, Compound 918326]	6.00 to 7.00	6.00 to 7.00
CCC1(c2cccc(C(F)(F)F)c2)C2=CN=NC2NC2=C1C(=O)NCC2C (stereo unspecified) [US20250313563, Compound 919318]	> 7.00	6.00 to 7.00
CCN(c1cccc(C2(CC)C3=CN=NC3NC3=C2C(=O)CC(C)(C)C3)c1)c1ncccn1 (stereo unspecified) [US20250313563, Compound 919840]	> 7.00	> 7.00
CC1(C)CC(=O)C2=C(C1)NC1=C(CN=N1)[C@]21CCOC(C)(C)C1 [US20250313563, Compound 924298]	5.30 to 6.00	5.30 to 6.00
CC1(C)CC(=O)C2=C(C1)NC1=C(CN=N1)[C@@]21CCOC(C)(C)C1 [US20250313563, Compound 924299]	6.00 to 7.00	6.00 to 7.00
CC1(C)CC(=O)C2=C(C1)NC1=C(CN=N1)[C@@]21CCOC2(CCOCC2)C1 [US20250313563, Compound 924306]	6.00 to 7.00	6.00 to 7.00
C[C@H]1C[C@@]2(CCO1)C1=C(N=NC1)NC1=C2C(=O)CC(C)(C)C1 [US20250313563, Compound 924307]	6.00 to 7.00	6.00 to 7.00
C[C@@H]1C[C@]2(CCO1)C1=C(N=NC1)NC1=C2C(=O)CC(C)(C)C1 [US20250313563, Compound 924308]	6.00 to 7.00	6.00 to 7.00
C[C@H]1COCC[C@]12C1=CN=NC1NC1=C2C(=O)CC(C)(C)C1 (stereo partly specified) [US20250313563, Compound 924309]	5.30 to 6.00	< 5.30
C[C@@H]1COCC[C@@]12C1=CN=NC1NC1=C2C(=O)CC(C)(C)C1 (stereo partly specified) [US20250313563, Compound 924310]	< 5.30	< 5.30
CC[C@H]1C[C@@]2(CCO1)C1=C(N=NC1)NC1=C2C(=O)CC(C)(C)C1 [US20250313563, Compound 924311]	6.00 to 7.00	5.30 to 6.00
CC[C@]1(c2cccc(N3C[C@H](C)[C@@H](C)C3)c2)C2=CN=NC2NC2=C1C(=O)CC(C)(C)C2 (stereo partly specified) [US20250313563, Compound 924312]	6.00 to 7.00	5.30 to 6.00
CC[C@]1(c2cccc(N3C[C@@H](C)[C@H](C)C3)c2)C2=CN=NC2NC2=C1C(=O)CC(C)(C)C2 (stereo partly specified) [US20250313563, Compound 924504]	6.00 to 7.00	6.00 to 7.00
CC[C@@]1(c2cccc(N3C[C@H](C)[C@@H](C)C3)c2)C2=CN=NC2NC2=C1C(=O)CC(C)(C)C2 (stereo partly specified) [US20250313563, Compound 924520]	< 5.30	< 5.30
CC[C@@]1(c2cccc(N3C[C@@H](C)[C@H](C)C3)c2)C2=CN=NC2NC2=C1C(=O)CC(C)(C)C2 (stereo partly specified) [US20250313563, Compound 924543]	5.30 to 6.00	< 5.30
CC[C@@H]1C[C@]2(CCO1)C1=C(N=NC1)NC1=C2C(=O)CC(C)(C)C1 [US20250313563, Compound 924715]	> 7.00	6.00 to 7.00
CC[C@]1(c2cccc(-c3ccnc(C)c3)c2)C2=CN=NC2NC2=C1C(=O)N[C@H](C)C2 (stereo partly specified) [US20250313563, Compound 926212]	> 7.00	5.30 to 6.00

Structure (SMILES)	pIC50 [1]	pIC50 [2]
CC[C@]1(c2cccc(-c3ccnc(C)c3)c2)C2=CN=NC2NC2=C1C(=O)N[C@@H](C)C2 (stereo partly specified) [US20250313563, Compound 926299]	5.30 to 6.00	< 5.30
CC[C@@]1(c2cccc(-c3ccnc(C)c3)c2)C2=CN=NC2NC2=C1C(=O)N[C@H](C)C2 (stereo partly specified) [US20250313563, Compound 926300]	> 7.00 and 6.00 to 7.00	6.00 to 7.00 and < 5.30
CC[C@@]1(c2cccc(-c3ccnc(C)c3)c2)C2=CN=NC2NC2=C1C(=O)N[C@@H](C)C2 (stereo partly specified) [US20250313563, Compound 926302]	5.30 to 6.00	< 5.30
CCC1(c2cccc(N(C)c3nc(C)cc(C)n3)c2)C2=CN=NC2NC2=C1C(=O)CC(C)(C)C2 (stereo unspecified) [US20250313563, Compound 926304]	6.00 to 7.00	5.30 to 6.00
C[C@H]1C[C@]2(CCN1S(=O)(=O)c1ccn(C)n1)C1=C(N=NC1)NC1=C2C(=O)CC(C)(C)C1 [US20250313563, Compound 926815]	> 7.00	> 7.00
CC1(C)CC(=O)C2=C(C1)NC1=C(CN=N1)[C@]21COC2(CN(S(C)(=O)=O)C2)C1 [US20250313563, Compound 926823]	6.00 to 7.00	5.30 to 6.00
C[C@H]1C[C@@]2(CCN1S(C)(=O)=O)C1=CN=NC1NC1=C2C(=O)CC(C)(C)C1 (stereo partly specified) [US20250313563, Compound 926827]	> 7.00	> 7.00
C[C@H]1C[C@@]2(CCN1S(=O)(=O)c1ccn(C)n1)C1=C(N=NC1)NC1=C2C(=O)CC(C)(C)C1 [US20250313563, Compound 926832]	> 7.00	6.00 to 7.00
CCC1(c2cccc(-c3cnn4c3CCCC4)c2)C2=CN=NC2NC2=C1C(=O)CC(C)(C)C2 (stereo unspecified) [US20250313563, Compound 926836]	> 7.00	6.00 to 7.00
CCC1(c2cccc(-c3cn(C)nc3C)c2)C2=CN=NC2NC2=C1C(=O)CC(C)(C)C2 (stereo unspecified) [US20250313563, Compound 926840]	> 7.00	> 7.00
CCC1(c2cccc(-c3cnnc(C)c3)c2)C2=CN=NC2NC2=C1C(=O)CC(C)(C)C2 (stereo unspecified) [US20250313563, Compound 926844]	> 7.00	6.00 to 7.00
CC(=O)N1CC2(C1)C[C@@]1(CO2)C2=C(N=NC2)NC2=C1C(=O)CC(C)(C)C2 [US20250313563, Compound 926861]	> 7.00	> 7.00
CC(=O)N1CC2(C1)C[C@]1(CO2)C2=C(N=NC2)NC2=C1C(=O)CC(C)(C)C2 [US20250313563, Compound 926872]	6.00 to 7.00	6.00 to 7.00
CC[C@]1(c2cccc(-c3ccnc(C)c3)c2)C2=CN=NC2NC2=C1C(=O)NC(C)(C)C2 (stereo partly specified) [US20250313563, Compound 927325]	6.00 to 7.00	6.00 to 7.00
CC[C@@]1(c2cccc(-c3ccnc(C)c3)c2)C2=CN=NC2NC2=C1C(=O)NC(C)(C)C2 (stereo partly specified) [US20250313563, Compound 927326]	6.00 to 7.00	< 5.30
CC[C@@]1(c2cccc(N(C)c3cccc(C(F)(F)F)n3)c2)C2=CN=NC2NC2=C1C(=O)CC(C)(C)C2 (stereo partly specified) [US20250313563, Compound 927338]	> 7.00	6.00 to 7.00
CC[C@@]1(c2cccc(-c3ccnc(C)c3F)c2)C2=C(CC(C)(C)CC2=O)NC2N=NC(C)=C21 (stereo partly specified) [US20250313563, Compound 927340]	< 5.30	< 5.30
CC[C@]1(c2cccc(NS(C)(=O)=O)c2)C2=CN=NC2NC2=C1C(=O)CC(C)(C)C2 (stereo partly specified) [US20250313563, Compound 927341]	5.30 to 6.00	5.30 to 6.00
CCC1(c2cccc(-c3ccnnc3)c2)C2=CN=NC2NC2=C1C(=O)CC(C)(C)C2 (stereo unspecified) [US20250313563, Compound 927342]	> 7.00	> 7.00
CC1(C)CC(=O)C2=C(C1)NC1N=NC=C1C21CCCS(=O)(=O)CC1 (stereo unspecified) [US20250313563, Compound 927343]	> 7.00	6.00 to 7.00
CCC1(c2cccc(S(=O)(=O)C3CCOCC3)c2)C2=CN=NC2NC2=C1C(=O)CC(C)(C)C2 (stereo unspecified) [US20250313563, Compound 927344]	> 7.00	> 7.00
CC[C@]1(c2cccc(N(C)c3cccc(C(C)(F)F)c3)c2)C2=CN=NC2NC2=C1C(=O)CC(C)(C)C2 (stereo partly specified) [US20250313563, Compound 927345]	< 5.30	< 5.30
CC[C@@]1(c2cccc(-c3ccnc(C)c3F)c2)C2=CN=NC2NC2=C1C(=O)CC(C)(C)C2 (stereo partly specified) [US20250313563, Compound 927347]	> 7.00 and 6.00 to 7.00	> 7.00 and 5.30 to 6.00
CC[C@@]1(c2cccc(NS(C)(=O)=O)c2)C2=CN=NC2NC2=C1C(=O)CC(C)(C)C2 (stereo partly specified) [US20250313563, Compound 927348]	> 7.00	> 7.00
CC[C@]1(c2cccc(-c3ccnn3C)c2)C2=CN=NC2NC2=C1C(=O)NC(C)(C)C2 (stereo partly specified) [US20250313563, Compound 927389]	> 7.00 and 6.00 to 7.00	> 7.00 and 5.30 to 6.00
CC[C@@]1(c2cccc(-c3ccnn3C)c2)C2=CN=NC2NC2=C1C(=O)NC(C)(C)C2 (stereo partly specified) [US20250313563, Compound 927390]	6.00 to 7.00	< 5.30
